Data published in patent US20140341916A1, “THERAPEUTIC COMBINATIONS AND METHODS OF TREATING MELANOMA” (Genentech, Inc., priority 2011, published 2014).

System: UACC-257X2.2 melanoma xenograft
Assay: In vivo efficacy, subcutaneous melanoma xenograft, tumor volume / % TGI
Set-up: species or system mice
Conditions: UACC257-X2.2
Description: Next, efficacy studies were performed using the melanoma cells lines in the xenografts mouse models described above. All studies were conducted in accordance with the Guide for the Care and Use of Laboratory Animals (Ref: Institute of Laboratory Animal Resources (NIH publication no. 85-23), Washington, D.C.: National Academies Press; 1996). 10- to 14-week-old female CRL Nu/Nu or NCr nude mice from Charles River Laboratories were inoculated subcutaneously in the dorsal right flank with either 5×10^6 UACC-257X2.2 cells in HBSS with Matrigel or 5×10^6 A2058 cells in HBSS with Matrigel. When tumor volumes reached approximately 200 mm^3 (day 0), animals were randomized into groups of 10 each.
For single agent efficacy studies, the anti-ETBR ADC candidate Hu5E9v1-ADC was administered as a single intravenous (IV) injection on day 0 at 1 mpk, 3 mpk, or 6 mpk (mg/kg). A control ADC antibody and vehicle control were also administered. Average tumor volumes with standard deviations were determined from 10 animals per group. Tumor volumes were measured twice per week until study end.
To do this, the in vivo efficacy for various combinations of Hu5E9v1-ADC and BRAFi-945 were evaluated against the UACC-257X2.2 melanoma model described above. Tumors were grown to an average size of approximately 200 mm^3, whereupon animals were randomized into groups of 10 each. An appropriate vehicle control (Klucel LF) or BRAFi-945 at doses of 1 mpk, 6 mpk or 20 mpk were administered orally once a day×21 days beginning on study Day 0. A single 1 mpk or 3 mpk dose of Hu5E9v1-ADC or control, a histidine buffer #8, was administered intraveneously (after two doses of 945) via tail vein at study Day 1.
The average tumor volumes were determined from 10 animals per group. Tumor volumes were measured twice per week until study end. Tumor volumes were measured in two dimensions (length and width) using UltraCal IV calipers (Model 54 10 111, Fred V. Fowler Company; Newton, Mass.). The following formula was used with Excel, version 12.2.8 (Microsoft; Redmond, Wash.) to calculate tumor volume: Tumor Volume (mm3)=[…]
To analyze the repeated measurement of tumor volumes from the same animals over time, a mixed-modeling Linear Mixed Effects (LME) approach was used (Pinheiro et al. 2009). This approach can address both repeated measurements and a modest drop-out rate due to non-treatment-related termination of animals prior to study end. Cubic regression splines were used to fit a non-linear profile to the time courses of log 2 tumor volume at each dose level. These non-linear profiles were then related to dose within the mixed model. Tumor growth inhibition (TGI) as a percentage of vehicle was calculated as percent area under the fitted curve (AUC) per day in relation to the vehicle, using the following formula:
Using this formula, a TGI value of 100% indicates tumor stasis, of >1% but <100% indicates tumor growth delay, and of >100% indicates tumor regression. To get uncertainty intervals (UIs) for % TGI, the fitted curve and the fitted covariance matrix were used to generate a random sample as an approximation to the distribution of % TGI. The random sample is composed of 1000 simulated realizations of the fitted-mixed model, where the % TGI has been recalculated for each realization. Here, in the reported UI is the value for which 95% of the time, the recalculated values of % TGI will fall in this region given the fitted model. The 2.5 and 97.5 percentiles of the simulated distribution were used as the […] UIs.

## Nc1ncnc2c(C(=O)Nc3c(Cl)ccc(NS(=O)(=O)CCCF)c3F)csc12 [BRAFi-945, 4-amino-N-(6-chloro-2-fluoro-3-(3-fluoropropylsulfonamido)phenyl)thieno[3,2-d]pyrimidine-7-carboxamide]
BRAFi Qdx21 1 mg/kg
  % TGI Single Agent BRAFi vs. control: 66%
BRAFi Qdx21 6 mg/kg
  % TGI Single Agent BRAFi vs. control: 109%
BRAFi Qdx21 20 mg/kg
  % TGI Single Agent BRAFi vs. control: 136%
